Legend:
[1] = Increase in contractions of electrically stimulated guinea pig longitudinal muscle/myenteric plexus at 2 mM; type: functional, Cavia porcellus, Muscle tissue
[2] = Increase in contractions of electrically stimulated guinea pig longitudinal muscle/myenteric plexus at 0.1 mM; type: functional, Cavia porcellus, Muscle tissue
Cavia porcellus = species: Cavia porcellus; experiment: Increase in contractions of electrically stimulated guinea pig longitudinal muscle/myenteric plexus; type: functional, tissue-based; conditions: Muscle tissue

Row | SMILES | Activity [1] [%] | Activity [2] [%] | Activity (Cavia porcellus)
1 | Cn1c(=N)c2nc[nH]c2n(C)c1=O | 34 | – | –
2 | C/N=c1\ncn(C)c2c1[nH]c(=O)n2C [CAISSARONE] | – | 80 | Dose-dependent effect
